SMILES strings stand for the structures. pIC50: −log10 of the molar value. Marks after values point to notes of the source that are not given here.

For assay [1], the system named is IL-6 production from neutrophil. The assay is described as follows: Inhibitory activity against IL-6 production, LPS-stimulated neutrophil fraction from human peripheral blood. Type of assay: cell-based. As to conditions: 10 μg/mL LPS, 16-18 hours, RIA.
Assay [2] relates to NO production from activated macrophage. Description: Inhibitory activity against NO production from mouse activated macrophage. Conditions: LPS. Format: cell-based. The method, then: To BALB/c male mice was intraperitoneally administered 2 mL of a thioglycolate solution, and induced activated MΦ were collected after four days and used as NO producing cells. The cells were adjusted to 2×10^6 cells/mL and plated onto a 96-well microtiter plate at 2×10^5 cells/100 μL/well. 10 μL of 1 μg/mL of Compound Ia and LPS (lipopolysaccharide) were added thereto and incubated at 37° C. under 5% CO2 for 24 hours. 75 μL of the supernatant obtained after incubation and 75 μL of Griess reagent were incubated, and […] in the form of sodium nitrite was measured to determine the amount of NO in the supernatant.

For the compound `CCN1CC/C(=C\c2cc(C(C)(C)C)c(O)c(C(C)(C)C)c2)S1(=O)=O` [Compound Ia, (E)-2-Ethyl-5-(3,5-di-tert-butyl-4-hydroxy)benzylidene-1,2-isothiazolidine-1,1-dioxide], the pIC50 (usually −log10 of the IC50, conventionally taken in molar units) was 4.70 in assay [1] and 5.52 in assay [2] (mouse activated macrophage, 24 hours). Also, the “NO^2- Production” value in assay [2] (0.8 μM compound, 24 hours) is reported as 27.3 ± 0.94 μM/2 × 10^5 cells; in assay [2] (3.1 μM compound, 24 hours) it was 12.3 ± 2.50 μM/2 × 10^5 cells; in assay [2] (12.5 μM compound, 24 hours), <1.0*** μM/2 × 10^5 cells; in assay [2] (50 μM compound, 24 hours), <1.0*** μM/2 × 10^5 cells; in assay [2] (100 μM compound, 24 hours) it was <1.0*** μM/2 × 10^5 cells. In addition, in assay [2] (mouse activated macrophage), the “concentration at which NO production was inhibited in a dose-dependent manner” value fell in the range of 0.8 to 12.5 µM.

Source of the values: patent US6743923B2, “Antirheumatic agent” (Shionogi & Co., Ltd., priority 1997, dated 2004).
